Measured values published in US20230346831A1, “METHODS FOR TREATING […] USING LOW DOSE CARBON MONOXIDE” (priority 2020, published 2023).

Test system: N134/RHAMM^B cells
Assay: tail vein liver metastasis model
Type: in vivo
Conditions: 1.5 × 10^6 N134/RHAMM^B cells tail vein, NSG mice, 250 ppm CO 3 hours daily, 24 days
Procedure: NSG mice were injected with 0.1 million (FIGS. 3A-3B) or 5 × 10^4 (FIGS. 3C-3E) MDA-MB-231/TGL breast cancer cells through tail vein or 8988T/TGL pancreatic cancer cells through spleen (FIGS. 3F-3H). Mice were randomly divided into two groups after injection. One group of mice was kept in regular mouse holding room all the time while the other group was treated with 250 ppm CO for 3 hours daily starting one day after injection. FIGS. 3C and 3F: bioluminescent imaging was taken at day 0, day 1, day3 and then once a week and signals from the whole mice were plotted. FIGS. 3A, 3D and 3G: organs were harvested for histological analysis. Representative H&E stained images of metastatic tumors in the lung sections (FIGS. 3A and 3D) and in the liver sections (FIG. 3G) were shown. Metastatic tumor areas or numbers of mets on the H&E stained sections for each mouse were quantified (FIGS. 3B, 3E and 3H).
In another experiment, immunodeficient NOD/scid-IlL2Rgc knockout mice were injected with 1.5 × 10^6 N134/RHAMM^B cells in 120 µl PBS via tail veins. Tumors developed 24 days after injection with 1.5 × 10^6 N134/RHAMM^B cells, and livers were assessed.

Q: What does the source list for [C-]#[O+] [CO, Carbon monoxide]?
A: total metastatic pancreatic tumor burden in the liver: showed a trend to reduce; liver metastases (vs untreated controls): reduced
